In patent publication US6420413B2, “Heterocycloalkylbenzocyclobutane and heteroarylbenzocyclobutane compounds” (Les Laboratories Servier, priority 2000, dated 2002):

What was measured:
[1] = tested on: spontaneous marble-burying behaviour of mice; assay: Marble-burying test in mice; type: in vivo; settings: male NMRI mice, 30 minutes' free exploration, s.c.
Description: This test enables evaluation of the capacity of pharmacological agents to inhibit the spontaneous marble-burying behaviour of mice, the inhibition being predictive of antidepressant and/or anti-impulsive action. Male mice of the NMRI strain (Iffa-Credo, l'Arbresle, France) weighing from 20 to 25 g on the day of the experiment are placed individually in Macrolon® boxes (30×18×19 cm) containing 5 cm of sawdust and covered with a perforated plexiglass plate. Twenty-four “tiger's eye” glass marbles are evenly distributed on the sawdust at the periphery of the box. At the end of 30 minutes' free exploration, the animals are removed from the box and the number of buried marbles is counted.

[2] = tested on: level of serotonin, noradrenalin and dopamine in cingulate frontal cortex; assay: Microdialysis experiment in the rat; type: in vivo; settings: rat frontal cortex dialysate, 10 mg/kg subcutaneously
Experimental: Rats are anaesthetised with pentobarbital (60 mg/kg i.p.). They are placed in a Kopf stereotactic device and the cannula guide is implanted in the cingulate frontal cortex in accordance with the coordinates described in the Paxinos and Watson atlas (1982) as follows: AP=+2.2; L=±0.6; DV=−0.2. The rats are placed in separate cages and are not used in dialysis until 5 days later. […] The probe is perfused at a flow rate of 1 μl/mn with a solution of 147.2 mM NaCl, 4 mM KCl and 2.3 mM CaCl2 adjusted to pH 7.3 with a phosphate buffer (0.1 M). Two hours after implantation, samples are collected every 20 minutes for 4 hours. Three baseline samples are taken before administration of the products to be tested. The rats are left in their individual cages for the whole of the experiment. When the experiment is finished, the rats are decapitated and the brain is removed and frozen in isopentane. Sections of a thickness of 100 μm are cut and stained with cresyl violet, which allows verification of the location of the probes.
The simultaneous quantification of dopamine, norepinephrine and serotonin is carried out as follows: 20 μl dialysis samples are each diluted with 20 μl of mobile phase (NaH2PO4: 75 mM, EDTA: 20 μM, sodium 1-decanesulphonate: 1 mM, methanol: 17.5%, triethylamine: 0.01%, pH: 5.70) and 33 μl samples are analysed by HPLC using a reverse phase column thermostatically maintained at 45° C. and quantified by means of a coulometric detector. The potential of the first electrode of the detector is set at −90 mV (reduction) and that of the second at +280 mV (oxidation). The mobile phase is injected at a flow rate of 2 ml/mn using a pump. The sensitivity limits for dopamine, norepinephrine and serotonin are 0.55 fmol per sample. All the products of the invention are injected subcutaneously in a volume of 1.0 ml/kg. The products are dissolved in distilled water to which a few drops of lactic acid have been added if necessary.

| SMILES | Marble-burying in mice, ID50 (inhibitory dose50) [1] [mg/kg s.c.] | increase of the level of dopamine (maximum % of the effect compared with the baseline level defined as 0%) [2] [%] | increase of the level of noradrenalin (maximum % of the effect compared with the baseline level defined as 0%) [2] [%] | increase of the level of serotonin (maximum % of the effect compared with the baseline level defined as 0%) [2] [%] |
| --- | --- | --- | --- | --- |
| CN(C)CC1(C2(O)CCCCC2)Cc2cc3occc3cc21 (centres unmarked) [Example 5, 1-{5-[(Dimethylamino)methyl]-5,6-dihydrocyclobuta[f][1]benzofuran-5-yl}cyclohexanol] | 0.6 | 400±50 | 500±13 | 250±15 |
| CNCCC(Oc1ccc(C(F)(F)F)cc1)c1ccccc1 (centres unmarked) [Fluoxetine, fluoxetine, reference compound] | 8.03 |  |  |  |
